Columns and labels:
[1] = test system: COS-7 cells expressing an exon 1 fragment of the HD gene with 74 glutamines (Q74); experiment: Aggregate formation and abnormal cell nuclei in transiently transfected COS-7 cells expressing Q74; type: cell-based, African green monkey; conditions: 24 hours post transfection; 0.2 μg/ml rapamycin
[2] = test system: mTOR-dependent TOP-translation; experiment: TOP-luciferase reporter assay in PC12 cells stably expressing Q23 or Q74; type: cell-based, rat
Method: PC12 cells stably expressing Q23 or Q74 were transfected with a luciferase construct having a 5′ untranslated region from the eEF2 gene containing a terminal oligopyrimidine tract (TOP-luciferase) or without the TOP sequence (Control-luciferase) along with β-galactosidase (to control transfection efficiency). Transfected cells were maintained in serum free medium with doxycycline for 36 hours following which the cells were stimulated with 15% serum with or without rapamycin for 3 h. Cells were then lysed and luciferase assays were performed according to standard protocol. COS-7 cells were co-transfected with Q23 or Q74 with control- or TOP-luciferase along with β-gal and experiments were performed as above. […] Experiments were performed in sextuplicate and repeated several times.
Phosphorylation of the ribosomal protein S6 by S6K1 positively regulates the translation initiation of mRNAs containing 5′-terminal oligopyrimidine tracts (5′-TOP), like mRNAs coding for ribosomal proteins and translation elongation factors. A previously validated luciferase reporter assay was used to measure mTOR-dependent TOP-translation (Kim, J. E. & Chen, J. Proc Natl Acad Sci USA 97, 14340-14345 (2000), Schwab, M. S. et al. Mol Cell Biol 19, 2485-2494 (1999)). Rapamycin is a specific inhibitor of mTOR. Comparison of cells for TOP-dependent translation with this assay in the presence or absence of rapamycin allows assessment of the amount of functional cellular mTOR that can be inhibited by rapamycin. In FIG. 10C, each bar represents the difference between the luciferase activities (corrected for transfection efficiency-see methods) in the presence vs. the absence of rapamycin, for a luciferase reporter with a TOP sequence (+TOP) (FIG. 10A) and otherwise identical control construct without the TOP sequence (−TOP) (FIG. 10B).

[3] = test system: LC3-stained vesicles (autophagosomes); experiment: Number of LC3-stained vesicles (autophagic activity); type: cell-based; conditions: rapamycin treatment
From the text: Immunocytochemistry was done in COS-7 cells fixed with 4% paraformaldehyde (Sigma). Free-floating mouse brain sections from HD transgenic and control brains and paraffin-embedded HD grade III and control brain slices spanning the caudate and putamen regions were used for histochemical analysis. Primary antibodies used: anti-mTOR, anti-phospho-mTOR (Ser2448), anti-4E-BP1, anti-phospho-S6 (Ser235/236) (Cell signalling technologies), anti-LC3 (kind gift from Dr Yoshimori) and anti-huntingtin and anti-ubiquitin (both from Chemicon). Immunohistochemistry was performed by standard fluorescence methods or peroxidase labelling using Vectastain Avidin: Biotinylated enzyme Complex (ABC) kit. Relevant negative controls without the primary antibodies were performed alongside all the experiments.
LC3-II is a form of microtubule associated protein-1 light chain-3 (MAP-LC3), which is associated with mammalian autophagosomes (Kabeya, Y. et al. Embo J 19, 5720-5728 (2000)). […] While this effect was subtle, it was consistent and reproducible in four independent experiments. In addition, LC3-II increased upon induction of mutant huntingtin fragment expression in the stable PC12 cells, while no difference was seen upon induction of the Q23 cells. Another way one can score autophagic activity is to assess the number of LC3-stained vesicles.

rapamycin
cell death in Q74-expressing cells [1]: reduced | proportions of cells with Q74 aggregates [1]: reduced | inhibition of TOP-dependent (+TOP) expression of luciferase ([2]; Q23-expressing PC12 cells, after serum stimulation, 3 h): about 18% | luciferase activity, control-luciferase construct without the TOP sequence (−TOP) ([2]; Q23 cells): no inhibitory effect | inhibition of TOP-dependent (+TOP) expression of luciferase ([2]; Q74-expressing PC12 cells): no such inhibitory effect | number of LC3-stained vesicles [3]: marked increase
